# Results published in ChEMBL document CHEMBL3734738, “A structure-activity relationship of non-peptide macrocyclic histone deacetylase inhibitors and their anti-proliferative and anti-inflammatory activities” (Bioorg Med Chem, 2015).
# How the values were obtained:
# Histone deacetylase 8 = molecular target: T1, Histone deacetylase 8 (Homo sapiens, UniProt Q9BY41); assay: Inhibition of recombinant HDAC8 (unknown origin) expressed in Escherichia coli BL21(DE3) after 60 mins using trichostatin A by label-free mass spectrometry-based SAMDI assay
# T1 sequence (Q9BY41 whole entry): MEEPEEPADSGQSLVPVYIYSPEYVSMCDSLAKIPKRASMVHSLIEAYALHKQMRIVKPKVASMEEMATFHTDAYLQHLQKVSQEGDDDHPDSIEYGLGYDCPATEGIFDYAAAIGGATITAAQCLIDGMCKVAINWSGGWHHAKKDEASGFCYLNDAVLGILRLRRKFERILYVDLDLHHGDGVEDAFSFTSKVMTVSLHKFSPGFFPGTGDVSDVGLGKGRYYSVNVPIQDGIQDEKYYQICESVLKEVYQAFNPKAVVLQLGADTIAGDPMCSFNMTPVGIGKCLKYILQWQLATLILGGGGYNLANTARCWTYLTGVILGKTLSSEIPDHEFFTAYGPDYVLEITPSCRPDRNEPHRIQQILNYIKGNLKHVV
# [1] = molecular target: T2, Protein deacetylase HDAC6 (Homo sapiens, UniProt Q9UBN7); assay: Inhibition of recombinant HDAC6 (unknown origin) expressed in Escherichia coli BL21(DE3) after 60 mins using trichostatin A by label-free mass spectrometry-based SAMDI assay
# T2 sequence (Q9UBN7 whole entry): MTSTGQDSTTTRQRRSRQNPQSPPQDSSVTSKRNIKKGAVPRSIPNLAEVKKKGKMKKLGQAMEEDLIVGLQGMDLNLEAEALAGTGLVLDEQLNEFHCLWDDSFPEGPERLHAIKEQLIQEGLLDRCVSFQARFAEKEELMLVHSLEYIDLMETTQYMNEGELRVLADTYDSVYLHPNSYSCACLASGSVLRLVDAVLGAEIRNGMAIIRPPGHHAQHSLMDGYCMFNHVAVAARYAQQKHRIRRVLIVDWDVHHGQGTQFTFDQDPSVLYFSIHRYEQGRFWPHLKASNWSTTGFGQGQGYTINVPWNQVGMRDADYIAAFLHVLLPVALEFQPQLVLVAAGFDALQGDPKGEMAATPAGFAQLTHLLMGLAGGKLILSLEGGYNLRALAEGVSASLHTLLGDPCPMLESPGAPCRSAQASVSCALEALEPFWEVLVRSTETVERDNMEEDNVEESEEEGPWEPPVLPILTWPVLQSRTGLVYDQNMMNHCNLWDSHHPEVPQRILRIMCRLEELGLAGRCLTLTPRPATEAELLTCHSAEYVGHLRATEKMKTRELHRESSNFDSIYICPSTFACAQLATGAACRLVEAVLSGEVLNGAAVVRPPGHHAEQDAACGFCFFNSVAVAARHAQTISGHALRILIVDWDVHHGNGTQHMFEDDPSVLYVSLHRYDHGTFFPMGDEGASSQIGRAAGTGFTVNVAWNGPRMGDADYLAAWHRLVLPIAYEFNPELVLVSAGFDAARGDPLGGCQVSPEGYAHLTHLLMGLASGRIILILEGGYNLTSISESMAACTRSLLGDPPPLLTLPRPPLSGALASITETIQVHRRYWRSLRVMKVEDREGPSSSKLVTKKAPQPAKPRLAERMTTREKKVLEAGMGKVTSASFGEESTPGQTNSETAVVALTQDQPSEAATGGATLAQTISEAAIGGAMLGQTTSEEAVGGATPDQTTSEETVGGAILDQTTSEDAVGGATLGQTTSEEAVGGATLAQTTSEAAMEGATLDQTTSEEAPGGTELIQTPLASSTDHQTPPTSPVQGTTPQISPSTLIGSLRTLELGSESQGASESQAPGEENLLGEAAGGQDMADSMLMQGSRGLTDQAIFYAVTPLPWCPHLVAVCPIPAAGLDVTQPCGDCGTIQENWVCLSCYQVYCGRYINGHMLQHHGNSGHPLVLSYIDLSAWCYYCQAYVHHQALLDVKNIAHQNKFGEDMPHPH
# Histone deacetylase 1 = Histone deacetylase 1 (Homo sapiens, UniProt Q13547); assay: Inhibition of recombinant HDAC1 (unknown origin) expressed in Escherichia coli BL21(DE3) after 60 mins using trichostatin A by label-free mass spectrometry-based SAMDI assay
# Histone deacetylase 1, sequence (Q13547 whole entry): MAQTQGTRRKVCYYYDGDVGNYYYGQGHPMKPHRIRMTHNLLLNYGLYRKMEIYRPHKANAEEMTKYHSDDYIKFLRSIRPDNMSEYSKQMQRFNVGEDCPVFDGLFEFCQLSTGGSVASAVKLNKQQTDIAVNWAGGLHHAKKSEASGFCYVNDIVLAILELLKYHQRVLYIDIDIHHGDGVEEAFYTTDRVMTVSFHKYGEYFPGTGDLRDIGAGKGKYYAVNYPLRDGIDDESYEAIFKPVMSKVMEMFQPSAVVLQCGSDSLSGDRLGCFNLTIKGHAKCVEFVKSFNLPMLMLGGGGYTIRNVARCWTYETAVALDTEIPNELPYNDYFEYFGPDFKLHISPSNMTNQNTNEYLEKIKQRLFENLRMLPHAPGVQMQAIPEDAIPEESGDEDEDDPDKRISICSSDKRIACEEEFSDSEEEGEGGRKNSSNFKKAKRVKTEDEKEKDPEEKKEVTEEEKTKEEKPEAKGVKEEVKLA
Structure (SMILES),IC50 (Histone deacetylase 8) [nM],IC50 [1] [nM],IC50 (Histone deacetylase 1) [nM]
CC[C@@H]1OC(=O)[C@@H](C)[C@H](O[C@H]2C[C@@](C)(OC)[C@@H](O)[C@H](C)O2)[C@H](C)[C@H](O[C@@H]2O[C@H](C)C[C@H](N(C)Cc3ccc(-c4cn(CC(=O)NO)nn4)cc3)[C@H]2O)[C@@](C)(OC)C[C@H](C)C(=O)[C@@H](C)[C@@H](O)[C@@]1(C)O,> 10000,> 10000,> 10000
CC[C@@H]1OC(=O)[C@@H](C)[C@H](O[C@H]2C[C@@](C)(OC)[C@](O)(CN(C)Cc3ccc(-c4cn(CCCCC(=O)NO)nn4)cc3)[C@H](C)O2)[C@H](C)[C@H](O[C@@H]2O[C@H](C)C[C@H](N(C)C)[C@H]2O)[C@@](C)(OC)C[C@H](C)C(=O)[C@@H](C)[C@@H](O)[C@@]1(C)O,1820,269,3690
CC[C@H]1OC(=O)[C@H](C)[C@@H](O[C@@H]2C[C@](C)(OC)[C@H](O)[C@@H](C)O2)[C@H](C)[C@@H](O[C@@H]2O[C@H](C)C[C@H](N(C)C)[C@H]2O)[C@@](C)(O)C[C@@H](C)CN(Cc2ccc(-c3cn(CC(=O)NO)nn3)cc2)[C@@H](C)[C@@H](O)[C@]1(C)O,> 10000,> 10000,> 10000
CC[C@H]1OC(=O)[C@H](C)C(=O)[C@H](C)[C@@H](O[C@@H]2O[C@H](C)C[C@H](N(C)Cc3ccc(-c4cn(CCCCCC(=O)NO)nn4)cc3)[C@H]2O)[C@@](C)(OC)C[C@@H](C)C2=NCCN3C(=O)O[C@@]1(C)[C@H]3[C@H]2C,2030,8.9,73.1
CC[C@@H]1OC(=O)[C@@H](C)[C@H](O[C@H]2C[C@@](C)(OC)[C@](O)(CN(C)Cc3ccc(-c4cn(CC(=O)NO)nn4)cc3)[C@H](C)O2)[C@H](C)[C@H](O[C@@H]2O[C@H](C)C[C@H](N(C)C)[C@H]2O)[C@@](C)(OC)C[C@H](C)C(=O)[C@@H](C)[C@@H](O)[C@@]1(C)O,7120,5350,> 10000
CC[C@H]1OC(=O)[C@H](C)C(=O)[C@H](C)[C@@H](O[C@@H]2O[C@H](C)C[C@H](N(C)Cc3ccc(-c4cn(CCCCC(=O)NO)nn4)cc3)[C@H]2O)[C@@](C)(OC)C[C@@H](C)C2=NCCN3C(=O)O[C@@]1(C)[C@H]3[C@H]2C,3210,77.2,269
CC[C@H]1OC(=O)[C@@H](C)[C@H](O[C@H]2C[C@@](C)(OC)[C@@H](O)[C@H](C)O2)[C@H](C)[C@H](O[C@H]2O[C@@H](C)C[C@@H](N(C)Cc3ccc(-c4cn(CC(=O)NO)nn4)cc3)[C@@H]2O)[C@@](C)(O)C[C@H](C)CN(C)[C@@H](C)[C@H](O)[C@@]1(C)O,> 10000,5660,> 10000
CC[C@@H]1OC(=O)[C@@H](C)[C@H](O[C@H]2C[C@@](C)(OC)[C@@H](O)[C@H](C)O2)[C@H](C)[C@H](O[C@@H]2O[C@H](C)C[C@H](N(C)Cc3ccc(-c4cn(CCCCC(=O)NO)nn4)cc3)[C@H]2O)[C@@](C)(OC)C[C@H](C)C(=O)[C@@H](C)[C@@H](O)[C@@]1(C)O,877,120,4870
CC[C@H]1OC(=O)[C@H](C)C(=O)[C@H](C)[C@@H](O[C@@H]2O[C@H](C)C[C@H](N(C)Cc3ccccc3-c3cn(CCCCCC(=O)NO)nn3)[C@H]2O)[C@@](C)(OC)C[C@@H](C)C2=NCCN3C(=O)O[C@@]1(C)[C@H]3[C@H]2C,1190,248,> 10000
CC[C@H]1OC(=O)[C@H](C)C(=O)[C@H](C)[C@@H](O[C@@H]2O[C@H](C)C[C@H](N(C)Cc3ccc(-c4cn(CCC(=O)NO)nn4)cc3)[C@H]2O)[C@@](C)(OC)C[C@@H](C)C2=NCCN3C(=O)O[C@@]1(C)[C@H]3[C@H]2C,> 10000,1730,> 10000
CC[C@H]1OC(=O)[C@@H](C)[C@H](O[C@H]2C[C@@](C)(OC)[C@@H](O)[C@H](C)O2)[C@H](C)[C@H](O[C@H]2O[C@@H](C)C[C@@H](N(C)Cc3ccc(-c4cn(CCC(=O)NO)nn4)cc3)[C@@H]2O)[C@@](C)(O)C[C@H](C)CN(C)[C@@H](C)[C@H](O)[C@@]1(C)O,> 10000,2170,> 10000
CC[C@@H]1OC(=O)[C@H](C)[C@@H](O[C@@H]2C[C@](C)(OC)[C@H](O)[C@@H](C)O2)[C@@H](C)[C@@H](O[C@@H]2O[C@H](C)C[C@H](N(C)Cc3ccc(-c4cn(CCCCC(=O)NO)nn4)cc3)[C@H]2O)[C@](C)(O)C[C@@H](C)CN(C)[C@H](C)[C@@H](O)[C@]1(C)O,5380,145,1650
CC[C@@H]1OC(=O)[C@H](C)[C@@H](O[C@H]2C[C@@](C)(OC)[C@](O)(CN(C)Cc3ccc(-c4cn(CCC(=O)NO)nn4)cc3)[C@H](C)O2)[C@@H](C)[C@@H](O[C@@H]2O[C@H](C)C[C@H](N(C)C)[C@H]2O)[C@](C)(O)C[C@@H](C)CN(C)[C@H](C)[C@@H](O)[C@]1(C)O,2230,2030,> 10000
CC[C@@H]1OC(=O)[C@@H](C)[C@H](O[C@H]2C[C@@](C)(OC)[C@](O)(CN(C)Cc3ccc(-c4cn(CCC(=O)NO)nn4)cc3)[C@H](C)O2)[C@H](C)[C@H](O[C@@H]2O[C@H](C)C[C@H](N(C)C)[C@H]2O)[C@@](C)(OC)C[C@H](C)C(=O)[C@@H](C)[C@@H](O)[C@@]1(C)O,10200,3560,> 10000
CC[C@@H]1OC(=O)[C@H](C)[C@@H](O[C@H]2C[C@@](C)(OC)[C@](O)(CN(C)C)[C@H](C)O2)[C@@H](C)[C@@H](O[C@@H]2O[C@H](C)C[C@H](N(C)Cc3ccc(-c4cn(CCCCCC(=O)NO)nn4)cc3)[C@H]2O)[C@](C)(O)C[C@@H](C)CN(C)[C@H](C)[C@@H](O)[C@]1(C)O,1090,14.7,160
CC[C@@H]1OC(=O)[C@H](C)[C@@H](O[C@@H]2C[C@](C)(OC)[C@H](O)[C@@H](C)O2)[C@@H](C)[C@@H](O[C@@H]2O[C@H](C)C[C@H](N(C)Cc3cccc(-c4cn(CCCCCC(=O)NO)nn4)c3)[C@H]2O)[C@](C)(O)C[C@@H](C)CN(C)[C@H](C)[C@@H](O)[C@]1(C)O,604,43.8,109
CC[C@H]1OC(=O)[C@@H](C)[C@H](O[C@@H]2C[C@](C)(OC)[C@@](O)(CN(C)Cc3ccc(-c4cn(CC(=O)NO)nn4)cc3)[C@@H](C)O2)[C@H](C)[C@H](O[C@H]2O[C@@H](C)C[C@@H](N(C)C)[C@@H]2O)[C@@](C)(O)C[C@H](C)CN(C)[C@@H](C)[C@H](O)[C@@]1(C)O,4510,> 10000,> 10000
CC[C@H]1OC(=O)[C@@H](C)[C@H](O[C@H]2C[C@@](C)(OC)[C@@H](O)[C@H](C)O2)[C@H](C)[C@H](O[C@H]2O[C@@H](C)C[C@@H](N(C)Cc3ccc(-c4cn(CCCCCC(=O)NO)nn4)cc3)[C@@H]2O)[C@@](C)(O)C[C@H](C)CN(C)[C@@H](C)[C@H](O)[C@@]1(C)O (stereo in doubt),604,14.3,316
CC[C@@H]1OC(=O)[C@H](C)[C@@H](O[C@@H]2C[C@](C)(OC)[C@@](O)(CN(C)Cc3ccc(-c4cn(CCCC(=O)NO)nn4)cc3)[C@@H](C)O2)[C@@H](C)[C@@H](O[C@@H]2O[C@H](C)C[C@H](N(C)C)[C@H]2O)[C@](C)(O)C[C@@H](C)CN(C)[C@H](C)[C@@H](O)[C@]1(C)O,1180,181,> 10000
